Test results reported in US20240316038A1, “APOL1 INHIBITORS AND METHODS OF USE” (Maze Therapeutics, Inc., priority 2021, published 2024).

Columns and labels:
[1] = target: T1, APOL1 G2 (Homo sapiens, UniProt O14791, DEL388-389); test: APOL1 calcium transport inhibition assay (GCaMP6f calcium influx, FLIPR) in HEK T-REx/GCaMP6f/APOL1 G2 K6.3 cells; type: cell-based; conditions: inhibition of APOL1-mediated calcium influx; geometric mean of at least 2 assay runs, † = single assay run (technical duplicate)
T1 construct: expressed in transfected cells; host or cells: HEK293 T-REx clonal lines: HEK T-REx/GCaMP6f/APOL1 G2 K6.3 in A1, HEK293/T-REx APOL1 G2/clone #2 in A2
T1 sequence (O14791 with tags, fused parts or gaps DEL388-389): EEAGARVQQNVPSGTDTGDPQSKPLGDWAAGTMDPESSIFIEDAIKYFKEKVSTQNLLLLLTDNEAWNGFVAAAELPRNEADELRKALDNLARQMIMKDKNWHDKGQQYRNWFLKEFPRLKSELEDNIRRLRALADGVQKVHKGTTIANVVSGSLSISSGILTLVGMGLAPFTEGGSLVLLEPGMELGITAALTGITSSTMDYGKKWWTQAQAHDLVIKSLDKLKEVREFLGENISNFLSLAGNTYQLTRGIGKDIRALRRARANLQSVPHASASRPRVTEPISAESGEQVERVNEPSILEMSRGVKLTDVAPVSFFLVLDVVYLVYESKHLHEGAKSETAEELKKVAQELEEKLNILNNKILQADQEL
In short: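 HEK293 cells stably expressing GCaMP6f, APOL1 G2 induced 6 h with doxycycline (20 ng/mL added), then washed into Ca2+-free Tyrode's buffer pH 7.4. Compounds (8-point dose response) preincubated 10 min at room temperature, then Ca2+ injected to 5 mM final and influx read on FLIPR. AC50 reported as geometric mean of runs.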

[2] = target: T1, APOL1 G2; test: Rescue of HEK293 cell death caused by overexpression of APOL1 (CellTiter-Glo luminescence), HEK293/T-REx APOL1 G2/clone #2; type: cell-based; conditions: reversal of cell death caused by overexpression of APOL1; geometric mean of at least 2 assay runs, † = single assay run (technical duplicate)
In short: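 Rescue EC50s come from four-parameter logistic fits, geometric mean of at least 2 runs on separate days, each in duplicate. Readout: CellTiter-Glo luminescence after 17 h at 37 °C of 5,000 HEK293/T-REx APOL1 G2 clone #2 cells/well, with 6 ng/mL doxycycline to induce APOL1 and 3-fold serial compound dilutions in 0.5% DMSO.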

SMILES | AC50 [1] [µM] | EC50 [2] [µM]
CS(=O)(=O)CCCS(=O)(=O)c1ccc(OC[C@@H]2CN(CCc3cccc(Cl)c3)CCN2)cc1 [Compound 184, (3S)-1-[2-(3-chlorophenyl)ethyl]-3-{[4-(3-methanesulfonylpropanesulfonyl)phenoxy]methyl}piperazine] | 0.215 | 0.622
CN(c1ccc(OC[C@H](O)CN2CCOC(c3cccc(Cl)c3)C2)cc1)S(C)(=O)=O (single isomer, unassigned) [Compound 84, N-(4-((R)-3-((R) or (S)-2-(3-chlorophenyl)morpho-lino)-2-hydroxypropoxy)phe-nyl)-N-methylmethanesulfon-amide] | > 25 | > 30
C[C@@H]1C[C@H](COc2ccc(S(=O)(=O)CCO)cc2)CN1CCc1cc(Cl)cc(C#N)c1 [Compound 165, 3-chloro-5-{2-[(2R,4S)-4-{[4-(2-hydroxyethanesul-fonyl)phenoxy]meth-yl}-2-methylpyrrolidin-1-yl]ethyl}benzonitrile] | 0.409 | 0.0302
COC1CCN(CCc2cccc(Cl)c2)CC1COc1ccc(S(C)(=O)=O)cc1 (single isomer, unassigned) [Compound 37, (3R,4R) or (3S,4S) or (3R,4S) or (3S,4R)-1-(3-chlorophenethyl)-4-methoxy-3-((4-(methylsulfonyl)phenoxy)methyl) piperidine] | 3.84 | > 6.15
C[C@@H]1CN(CC(O)c2cc(C#N)cc(C#N)c2)C[C@H]1COc1ccc(S(C)(=O)=O)cc1 (single isomer, unassigned) [Compound 130, 5-[(1R or 1S)-1-hydroxy-2-[(3S,4S)-3-[(4-methanesulfonylphenoxy)methyl]-4-methylpyrrolidin-1-yl]ethyl]benzene-1,3-dicarbonitrile] | 2.17 | > 10
CC1CC(COc2ccc(S(C)(=O)=O)cc2)CN1CCc1cccc(C#N)c1 (single isomer, unassigned) [Compound 139, 3-{2-[(2S,4R or 2R,4S or 2S,4S or 2R,4R)-4-[(4-methanesulfon-ylphenoxy)meth-yl]-2-methyl-pyrrolidin-1-yl]-ethyl}benzo-nitrile] | > 10 | 3.23
CC1CC(COc2ccc(S(C)(=O)=O)cc2)CN1CCc1cccc(Cl)c1 (single isomer, unassigned) [Compound 55, (2R,4S) or (2R,4R) or (2S,4R) or (2S,4S)-1-(3-chlorophenethyl)-2-methyl-4-((4-(methylsulfonyl)phenoxy)methyl)pyrrolidine] | 1.29 | 1.68
CS(=O)(=O)c1ccc(OCC2(O)CCCN(CCc3cccc(Cl)c3)C2)cc1 (centres unmarked) [Compound 4, 1-(3-chlorophenethyl)-3-((4-(methylsulfonyl)phenoxy)methyl) piperidin-3-ol] | 1.07 | 2.35
C[C@@H]1CN(CCc2cccc(Cl)c2)C[C@H]1COc1ccc(S(C)(=O)=O)cc1 [Compound 133, (35,4S)-1-[2-(3-chlorophenyl)ethyl]-3-[(4-methanesulfonylphenoxy)methyl]-4-methylpyrrolidine] | 0.0383 | 0.135
C[C@@H]1CN(CC(O)c2cc(C#N)cc(C#N)c2)C[C@H]1COc1ccc(S(C)(=O)=O)cc1 (single isomer, unassigned) [Compound 131, 5-[(1S or 1R)-1-hydroxy-2-[(35,4S)-3-[(4-methanesulfonylphenoxy)methyl]-4-methylpyrrolidin-1-yl]ethyl]benzene-1,3-dicarbonitrile] | 0.394 | 0.46
CC1CNC(COc2ccc(S(C)(=O)=O)cc2)CN1CCc1cccc(Cl)c1 (single isomer, unassigned) [Compound 212, rac-cis or trans-(2R,5S)-1-[2-(3-chlorophenyl)ethyl]-5-[(4-methanesulfonylphenoxy)methyl]-2-methylpiperazine] | 2.55 | > 14.3
COC1CCN(CCc2cccc(Cl)c2)CC1COc1ccc(S(C)(=O)=O)cc1 (single isomer, unassigned) [Compound 38, (3S,4S) or (3R,4S) or (3 S,4R) or (3R,4R)-1-(3-chlorophenethyl)-4-methoxy-3-((4-(methylsulfonyl)phenoxy)methyl) piperidine] | < 0.253 | 0.407
CC(CN1C[C@@H](COc2ccc(S(C)(=O)=O)cc2)C[C@H]1C)c1cc(Cl)cc(C#N)c1 (single isomer, unassigned) [Compound 142, 3-chloro-5-[(2R or 2S)-1-[(2R, 4S)-4-[(4-meth-anesulfonyl-phenoxy)meth-yl]-2-methyl-pyrrolidin-1-yl]-propan-2-yl]-benzonitrile] | 1.23 | 0.131
CS(=O)(=O)c1ccc(OC[C@@H]2CCCN(CC(O)c3cccc(Cl)c3)C2)cc1 (single isomer, unassigned) [Compound 22, (S) or (R)-1-(3-chlorophenyl)-2-((R)-3-((4-(methylsulfonyl)phenoxy)methyl)piperidin-1-yl)ethanol] | 6.41 | 6.59
CS(=O)(=O)c1ccc(OC[C@@H]2CN(CCc3cc(Cl)cc(Cl)c3)CCN2)cc1 [Compound 190, (3S)-1-[2-(3,5-dichlorophenyl)ethyl]-3-[(4-methanesulfonylphenoxy)methyl]piperazine] | 0.17 | 0.291
CS(=O)(=O)c1ccc(OC[C@@H]2CN(CCc3cc(C#N)cc(C(F)(F)F)c3)CCN2)cc1 [Compound 193, 3-{2-[(3S)-3-[(4-methanesulfonylphenoxy)methyl]piperazin-1-yl]ethyl}-5-(trifluoromethyl)benzonitrile] | 1.45 | 0.782
CN(c1ccc(OCC2CCCN(CCc3cccc(Cl)c3)C2)cc1)S(C)(=O)=O (single isomer, unassigned) [Compound 9, (R) or (S)—N-(4-((1-(3-chlorophenethyl)piperidin-3-yl)methoxy)phenyl)-N-methylmethanesulfonamide] | 0.151 | 0.263
CN(c1ccc(OC[C@@H](O)CNCCc2cccc(Cl)c2)cc1)S(C)(=O)=O [Compound 86, (S)-N-(4-(3-((3-chlorophenethyl)a-mino)-2-hydroxypropoxy)phe-nyl)-N-methylmethanesulfon-amide] | 0.557 | > 4.11
CN=S(C)(=O)c1ccc(OC[C@@H]2CN(CCc3cccc(C#N)c3)C[C@H]2C)cc1 (stereo partly drawn) [Compound 169, 3-{2-[(3S,4S)-3-methyl-4-({4-[methyl(methyli-mino)oxo-λ^6-sulfanyl]phenoxy}methyl)pyrrolidin-1-yl]ethyl}benzonitrile] | 0.0797 | 0.182
CN(c1ccc(OC[C@@H](O)CN2CCC(c3cccc(Cl)c3)C2(C)C)cc1)S(C)(=O)=O (stereo partly drawn) [Compound 68, N-(4-((2S)-3-(3-(3-chlorophenyl)-2,2-dimethylpyrrolidin-1-yl)-2-hydroxypropoxy)phe-nyl)-N-methylmethanesulfon-amide] | 0.916 | 0.591
CN(c1ccc(OCC2CN(CCc3cccc(Cl)c3)CCCO2)cc1)S(C)(=O)=O (single isomer, unassigned) [Compound 12, (S) or (R)-N-(4-((4-(3-chlorophenethyl)-1,4-oxazepan-2-yl)methoxy)phenyl)-N-methylmethane-sulfonamide] | 2.39 | 3
C[C@@H]1C[C@H](COc2ccc(S(=O)(=O)C3CNC3)cc2)CN1CCc1cc(Cl)cc(C#N)c1 [Compound 161, 3-{2-[(2R,4S)-4-{[4-(azetidine-3-sulfonyl)phenoxy]methyl}-2-methylpyrrolidin-1-yl]ethyl}-5-chlorobenzonitrile] | 0.878 | 0.191
CC1CC(COc2ccc(S(C)(=O)=O)cc2)CN1CCc1cccc(C#N)c1 (single isomer, unassigned) [Compound 136, rac-trans or cis-3-{2-[4-[(4-methanesulfon-ylphenoxy)meth-yl]-2-methyl-pyrrolidin-1-yl]-ethyl}benzo-nitrile] | 0.207 | 0.11
COc1ccccc1CCNC[C@H](O)COc1ccc(N(C)S(C)(=O)=O)cc1 [Compound 98, (S)-N-(4-(2-hydroxy-3-((2-methoxyphenethyl)amino)propoxy)phe-nyl)-N-methylmethanesulfon-amide] | 3.92 | > 20
CN(c1ccc(OC[C@@H](O)CN2CCOC(c3cccc(Cl)c3)C2)cc1)S(C)(=O)=O (single isomer, unassigned) [Compound 81, N-(4-((S)-3-((S) or (R)-2-(3-chlorophenyl)morpho-lino)-2-hydroxypropoxy)phe-nyl)-N-methylmethanesulfon-amide] | > 25 | > 30
